The source of these data is patent EP0728012B1, “NOVEL GnRH ANALOGUES WITH ANTITUMOUR EFFECTS AND PHARMACEUTICAL COMPOSITIONS THEREOF” (Lovas, Sandor, priority 1994, dated 1996).

In assay [1] the test system is MCF-7 human mammary carcinoma cell line. In words: Inhibition of colony formation (dose-survival relation, Example 18). The class given is cell-based. Particulars: concentration not given. The method, then: (§1) In the case of cytostatics the cell-damaging effect is not cell-specific. […] One part of the arrested cells again go into the cycle, the other part may perish (apoptosis). […] The investigations were carried out on MCF-7 and MDA-MB-231 human mammary carcinoma cell lines, PC3 human prostate 15 carcinoma cell line and Ishikawa human endometrium carcinoma cell line. Three hundred cells were set into Petri dishes of 3.5 cm in diameter each. The treatment was carried out once, 24 hours following the explantation, then the colonies formed were counted after 9 to 12 days.

Assay [2] relates to Ishikawa human endometrium carcinoma cell line. The assay is described as above. The class given is cell-based. As for the experimental part:
as §1

For assay [3], the system named is MDA-MB-231 human mammary carcinoma cell line. The assay is described as above. The class given is cell-based. Particulars: concentration not given. As for the experimental part:
as §1

Assay [4] has as its system PC3 human prostate carcinoma cell line. The description is as above. The class given is cell-based. As for the experimental part:
as §1

Assay [5] deals with PC3. In words: Inhibition of colony formation by GnRH analogues (dose-survival, Example 48). The class given is cell-based, human. The method, then:
(§2) The examination gives accurate information about the cell-damaging effect of the substance tested as a function of varying doses. The treatment was carried out once; the colonies formed from the surviving cells were counted after 8 - 12 days. […] A part of the arrested cells again entered the cycle, another part of them might be destroyed (apoptosis). […] In the case of a dose-response investigation, colonies containing less than 15 cells were not counted. 300 cells were put into each Petri dishes of 3.5 cm in diameter. The treatment was once carried out 24 hours after setting, then the colonies formed were counted after 8 - 12 days. The cells were treated once after 24 hours with 1-50 µM of various GnRH analogues of Examples above or with 1 - 50 µM of GnRH-III, respectively. The percentages of inhibition obtained on MCF-7, MDA-MB-231, PC3 and Ishikawa cells, respectively, together with the dose of the active agent used are shown in Table VIII.

In a further assay the test system is MDA-MB-231. Described as above. The class given is cell-based, human. As for the experimental part:
as §2

The test system of assay [6] is Ishikawa. The description is as above. The class given is cell-based, human. Particulars: 50 µM. The method, then: as §2
Another assay relates to MCF-7. Described as above. Particulars: treated once. The class given is cell-based, human. As for the experimental part: as §2
The subject of assay [7] is human tumour cell lines. In words: Inhibition of colony formation (Example 48), comparison with the control D-Trp^6-hGnRH. The class given is cell-based. Particulars: data of Table VIII. As for the experimental part:
as §2
In these studies the D-Trp^6-hGnRH analogue (Sigma Co.) commonly used in the tumour therapy was employed as control.

Assay [8] has as its system human tumour cell lines. The class given is cell-based. The note with it: 30 µM. As for the experimental part: After being treated with trypsin, 300.000 each of MCF-7, MDA-MB-231, PC3 or Ishikawa cells, respectively, were passed into Petri dishes of 10 cm in diameter. Starting from the day following the setting, the cells were treated with 1-50 µM of the GnRH analogue in the exponential growth phase. During the experiment lasting for 5 days, the cells were treated in every two days with the peptide hormone dissolved in the nutrient medium, then the cell count was determined on the sixth day.

The next assay has as its system MCF-7 xenograft. Kind of assay: In vivo antitumour effect on MCF-7 xenograft in immunosuppressed mice. More on the design: species or system CBA/Ca mice. The note with it: MCF-7 xenograft; for Tumour volume as control (%): MI-1892 2 x 25 µg. As for the experimental part: (§3) The immunosuppression of mice was carried out by using the method of Steel et al. [Br. J. Cancer, 37, 224-230 (1978)]. Immunosuppression and xeno-transplantation
(§4) CBA-Ca female mice of about 6 weeks old were thymectomized and then, after one week, they were irradiated with 60Co (whole body irradiation; the lethal dose is 9.5 Gray). Within 24 hours 3 to 5 x 10^5 myelocytes were injected into the animals. Beneath the skin of the immunosuppressed mice 2 x 10^7 tumour cells or, in the case of later passages, […] were implanted. […] The treatment with steroid hormone was stopped by at least one week before beginning the investigation.
In the case of MCF-7 tumours (xenografts) the examinations were carried out with passages being in the phase of the 37th and 38th, respectively, transplantations.
In the case of mice bearing MCF-7 xenograft, the treatment was begun in the 4th week following xeno-transplantation.
(§5) Recent investigations have begun on 28 animals bearing MCF-7 xenograft and on 28 animals bearing MDA-MB-231 xenograft. On animals bearing MCF-7 tumour the treatment was commenced in the 5th week following xeno-transplantation; the tumour volume was 205 to 225 mm^3. On animals bearing MDA-MB-231 tumour, the treatment was started in the 4th week after xeno-transplantation with a tumour volume of 140 to 150 mm^3. […] The control groups were daily treated with physiological saline s.c. (Each treated group consisting of 7 animals).

The subject of assay [9] is PC3. Kind of assay: In vitro inhibition of cell proliferation (Example 19). The class given is cell-based, human. Particulars: 30 µM, peptide alone, two treatments on days 2 and 4. As for the experimental part:
(§6) The procedure of treatment was as follows. After trypsinization the cells, 400,000 cells of MCF-7, MDA-MB-231 human mammary carcinoma, PC3 human prostate carcinoma or Ishikawa human endometrium tumour each were passed into Petri dishes of 10 cm in diameter. Starting from the day following transfer, the cells were treated with the substances to be tested in solution prepared with the nutrient medium during the exponential growth phase. The cultures were treated with 1 to 50 µM (calculated for the total volume of the culture) or MI-1544 GnRH antagonist, MI-1892 chicken GnRH antagonist or SJ-1004 GnRH antagonist analogues as well as synthetic lamprey GnRH-III hormone every two days and the cell count was determined on the 7th day.

In a further assay the test system is humoral immune response. In words: Humoral immune response (antibody production of B-lymphocytes). The class given is in vivo. The note with it: mice. From the text: (§7) The immunosuppressive side effect of cytostatics used in tumour therapy is commonly known. This effect can be compensated to a certain grade by various immunostimulants (endotoxin, levamisole). Polypeptides with much […] molecular weights (about 40,000 to 80,000) are also capable of protecting against immunosuppressive effect [Gaál et al: J. Biol. Resp. Modif., 5, 148-159 (1986)]. The molecular weight of the novel polyanionic P-GFLG-OH macromolecule tested by us is about 10,000, that of MI-1892 is about 2000, i.e. relatively low; therefore, their immunostimulatory activity was unexpected.

The subject of assay [10] is Ishikawa. The note with it: 30 µM, peptide alone, two treatments on days 2 and 4. The method, then:
as §6, with “antagonist analogues as well as synthetic lamprey GnRH-III hormone every two days and the cell count was determined” left out

Another assay has as its system MXT mouse mammary tumour. Kind of assay: In vivo antitumour effect on mice bearing MXT mouse mammary tumour. Also noted: species or system CBA/Ca mice. As for the experimental part: The MXT mouse mammary carcinoma contains ER and PgR proteins; furthermore, it contains also GnRH receptors; therefore, this in vivo tumour model is suitable for studying both the direct and indirect effects. The treatment of mice bearing MXT mammary tumour was commenced on the day following transplantation. […] Table VI The animals were daily treated in s.c. route starting from the day following transplantation of MXT mouse mammary tumour. […] MI-1544: 75 µg/day/animal; MI-1892: 75 µg/day/animal.

In a further assay the test system is cellular immune response. Kind of assay: Cellular immune response (rosette formation against BRBC antigen). The class given is in vivo. Particulars: mice; 100 µg/mouse.
Text: as §7

A further assay concerns MDA-MB-231 xenograft. Kind of assay: In vivo antitumour effect on MDA-MB-231 xenograft in immunosuppressed mice. Particulars: Table V. Also noted: species or system CBA/Ca mice. As for the experimental part: as §3, §4, §5
A more recent study was started on 28 animals bearing MDA-MB-231 xenograft. The treatment was begun in the 4th or 5th week following xenotransplantation. The tumour volume was 0.165 to 0.194 cm^3. […] (For treatment of the control group, see the preceding Examples). Each group consisted of 7 animals.

Where [11] appears, read: MXT mouse mammary tumour, Treatment weeks: 13, 1x75 µg daily s.c.
The mark [12] stands for this setting: MXT mouse mammary tumour, Treatment weeks: 20, 1x75 µg daily s.c.
Setting [13] is: treatment week 4, MI-1892 2x25 µg daily s.c.
[14] abbreviates: treatment week 6, MI-1892 2x25 µg, conjugates 1x50 µg daily s.c.

Non-standard residues stand in square brackets, D forms with d. Residues, ends and D or L forms follow the SMILES beside them. Groups on a side chain read outwards from the residue. *: point of attachment. dPhe(4-Cl) = N[C@H](Cc1ccc(Cl)cc1)C(=O)O; NEt2 = CCN(CC)*

Consider `NCCCC[C@H](NC(=O)[C@H](Cc1c[nH]c2ccccc12)NC(=O)[C@H](Cc1c[nH]cn1)NC(=O)[C@@H]1CCC(=O)N1)C(=O)N[C@@H](Cc1c[nH]cn1)C(=O)N[C@@H](CC(=O)O)C(=O)N[C@@H](Cc1c[nH]c2ccccc12)C(=O)N[C@@H](CCCCN)C(=O)N1CCC[C@H]1C(=O)NCC(N)=O` [6. Lys^4-GnRH-III, Lys^4-GnRH-III], for which the “inhibition of colony formation” value in assay [1] is listed as 40%; in assay [2] (concentration not given), 21%; in assay [3], 35%; in assay [4] (concentration not given), “did not show any inhibition”; with PC3 [5] (within the dose range used (1-50 µM)), “did not influence”. The “% Inhibition of the colony formation” value in the assay with PC3 [5] (50 µM) was 0%; in the assay on MDA-MB-231 (10 µM) it was 18%; with MDA-MB-231 (50 µM) it was 35%; with MDA-MB-231 (50 µM, listed as Example 31, 50 µM), 35-42%; in the assay on Ishikawa [6] it was 21%; in the assay on MCF-7 (10 µM) it was 15%. In addition, the “% Inhibition of the colony formation” value in the assay on MCF-7 (50 µM) was 40%. Further, in the assay with human tumour cell lines [7], the “inhibitory effect compared with the control D-Trp^6-hGnRH” value is reported as “exceeded the inhibitory effect of control”. Further, in the assay on human tumour cell lines [8], the proliferation-inhibiting effect is listed as 27-31%.
Consider `CCN(CC)C(=O)[C@H](CC(=O)N[C@@H](CC(C)C)C(=O)N[C@@H](CCC(N)=O)C(=O)N1CCC[C@H]1C(=O)N[C@H](C)C(N)=O)NC(=O)[C@H](CCCCN)NC(=O)[C@H](CO)NC(=O)[C@@H](Cc1c[nH]c2ccccc12)NC(=O)[C@@H](Cc1ccc(Cl)cc1)NC(=O)[C@@H](Cc1c[nH]c2ccccc12)NC(C)=O` [MI-1892, Ac-D-Trp^1,3,D-Cpa^2,Lys^5,[β-Asp(DEA)]^6,D-Ala^10-hGnRH, reference compound] (Ac-[dW][dPhe(4-Cl)][dW]SKD([Leu-Gln-Pro-dA-NH2])-NEt2), for which the “decrease in the tumour volume in comparison to controls” value with MCF-7 xenograft (first study, end of 4th week, MI-1892 2 x 25 µg daily, conjugates 50 µg daily once) is on record as 20%. Further, the “Tumour volume as control (%)” value in the assay on MCF-7 xenograft (treatment week 4) is 78.5%; in the assay on MCF-7 xenograft (treatment week 6, conjugates 1 x 50 µg), 79%; in the assay on MXT mouse mammary tumour (setting [11]), 49%; with MXT mouse mammary tumour (setting [12]), 61%; in the assay on MXT mouse mammary tumour (day 9, 75 µg/day/animal s.c.) it was 86%; with MXT mouse mammary tumour (day 11, 75 µg/day/animal s.c.), 58%. The “Tumour volume as control (%)” value with MXT mouse mammary tumour (day 13, 75 µg/day/animal s.c.) came out at 49%; in the assay with MXT mouse mammary tumour (day 17, 75 µg/day/animal s.c.), 62%; in the assay on MXT mouse mammary tumour (day 18, 75 µg/day/animal s.c.), 64%; with MXT mouse mammary tumour (day 20, 75 µg/day/animal s.c.), 61%; in the assay with MXT mouse mammary tumour (day 24, 75 µg/day/animal s.c.), 50%; with MXT mouse mammary tumour (day 26, 75 µg/day/animal s.c.), 82%. The “Tumour volume as control (%)” value in the assay with MDA-MB-231 xenograft (setting [13]) is 75.5%; with MDA-MB-231 xenograft (setting [14]) it was 78%. Also, the values for the inhibition of proliferation in the assay with PC3 [9] and in the assay with Ishikawa [10] were 33% and 14%, respectively. Further, the entries for the “increase of the humoral immune response” value in the assay with humoral immune response (50 µg/mouse) and in the assay on humoral immune response (100 µg/mouse) were “more than two-fold” and “three-fold”, respectively. Further, the “% Inhibition of colony formation” value in assay [2] (50 µM) is 10%; in assay [4] (50 µM), 5%. The Inhibition % with MXT mouse mammary tumour (setting [11]) is 51%; in the assay with MXT mouse mammary tumour (setting [12]) it was 39%; with MDA-MB-231 xenograft (setting [13]) it was 24.5%; in the assay with MDA-MB-231 xenograft (setting [14]) it was 22%. Moreover, the “Tumour volume (cm^3)” value was found to be 0.61 cm^3 in the assay with MXT mouse mammary tumour (day 9, 75 µg/day/animal s.c.); 1.05 cm^3 in the assay with MXT mouse mammary tumour (day 11, 75 µg/day/animal s.c.); 1.59 cm^3 in the assay with MXT mouse mammary tumour (day 13, 75 µg/day/animal s.c.); 3.17 cm^3 in the assay on MXT mouse mammary tumour (day 17, 75 µg/day/animal s.c.); 4.8 cm^3 with MXT mouse mammary tumour (day 18, 75 µg/day/animal s.c.); 5.73 cm^3 with MXT mouse mammary tumour (day 20, 75 µg/day/animal s.c.). The “Tumour volume (cm^3)” value is 6.32 cm^3 with MXT mouse mammary tumour (day 24, 75 µg/day/animal s.c.) and 11.30 cm^3 in the assay with MXT mouse mammary tumour (day 26, 75 µg/day/animal s.c.). In addition, the “increase of the cellular immune response” value in the assay with cellular immune response is “two-fold”.
